Results published in patent US11530221B2, “Pyrimido[4,5-d]pyrimidin-2-one derivatives as protein kinase inhibitors” (KOREA INSTITUTE OF SCIENCE AND TECHNOLOGY, priority 2019, dated 2022).
Where two headings read alike, the source gives them in different places. Square brackets hold non-standard residues; d marks the D form. Peptide text beside a SMILES is read from it. * marks the point of attachment. X1 = Cc1ccc(Nc2ncc3c(n2)N(C)C(=O)N(c2cc(C(=O)*)ccc2C)C3)cn1; Ac4c = NC1(C(=O)O)CCC1; Aib = CC(C)(N)C(=O)O

Tests used:
LCK = LCK (Homo sapiens, UniProt P06239); experiment: IC50 inhibitory activity against LCK kinase; assay type: biochemical
Sequence of LCK (P06239 whole entry): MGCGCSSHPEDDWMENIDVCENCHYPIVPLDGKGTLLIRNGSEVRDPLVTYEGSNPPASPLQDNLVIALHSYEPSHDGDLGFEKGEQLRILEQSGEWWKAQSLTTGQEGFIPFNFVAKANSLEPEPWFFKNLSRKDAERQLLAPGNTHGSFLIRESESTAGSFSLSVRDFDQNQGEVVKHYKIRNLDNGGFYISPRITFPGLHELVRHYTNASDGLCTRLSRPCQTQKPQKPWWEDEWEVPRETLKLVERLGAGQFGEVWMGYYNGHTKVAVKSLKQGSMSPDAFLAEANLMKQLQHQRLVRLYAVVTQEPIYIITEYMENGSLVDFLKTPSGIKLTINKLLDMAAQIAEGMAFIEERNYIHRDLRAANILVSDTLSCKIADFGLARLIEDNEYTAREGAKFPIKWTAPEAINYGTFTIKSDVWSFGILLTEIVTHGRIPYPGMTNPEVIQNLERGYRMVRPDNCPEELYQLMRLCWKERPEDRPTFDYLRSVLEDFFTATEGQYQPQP
Experimental: (§1) IC50 values were calculated by measuring the inhibitory activity against LCK, c-Src, p38a/MAPK14, ABL1, DDR1 and FGR kinases of the compounds of the present invention.

c-Src = c-Src (Homo sapiens, UniProt P12931); experiment: IC50 inhibitory activity against c-Src kinase; assay type: biochemical
Sequence of c-Src (P12931 whole entry): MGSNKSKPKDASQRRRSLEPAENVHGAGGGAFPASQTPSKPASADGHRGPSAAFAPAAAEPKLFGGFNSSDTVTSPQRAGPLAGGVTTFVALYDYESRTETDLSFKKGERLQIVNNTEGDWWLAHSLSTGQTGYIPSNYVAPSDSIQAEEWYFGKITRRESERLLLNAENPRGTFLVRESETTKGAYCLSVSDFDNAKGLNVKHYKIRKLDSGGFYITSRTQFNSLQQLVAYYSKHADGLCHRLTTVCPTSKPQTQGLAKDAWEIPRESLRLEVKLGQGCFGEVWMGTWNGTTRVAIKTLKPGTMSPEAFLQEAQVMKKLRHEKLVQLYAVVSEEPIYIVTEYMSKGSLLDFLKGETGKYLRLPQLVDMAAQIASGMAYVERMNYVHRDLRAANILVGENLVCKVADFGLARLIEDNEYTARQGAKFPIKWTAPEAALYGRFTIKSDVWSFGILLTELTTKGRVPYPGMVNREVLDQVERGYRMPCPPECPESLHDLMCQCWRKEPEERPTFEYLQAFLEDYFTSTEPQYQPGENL
Experimental: as §1

| IC50 (LCK; read-out: LCK IC50) | IC50 (c-Src; read-out: c-Src IC50) | Structure (SMILES) | IC50 (LCK) | IC50 (c-Src) |
| --- | --- | --- | --- | --- |
| 0.001 to 0.2 µM | 0.001 to 0.2 µM | Cc1ccc(Nc2ncc3c(n2)N(C)C(=O)N(c2cc(NC(=O)c4ccc5c(c4)N(CC(=O)NCc4ccccc4)C(=O)[C@H](CC(C)C)N=C5c4ccccc4)ccc2C)C3)cn1 [Example 43, (S)-1-(2-(benzylamino)-2-oxoethyl)-3-isobutyl-N-(4-methyl-3-(1-methyl-7-((6-methylpyridin-3-yl)amino)-2-oxo-1,4-dihydropyrimido[4,5-d]pyrimidin-3(2H)-yl)phenyl)-2-oxo-5-phenyl-2,3-dihydro-1H-benzo[e][1,4]diazepine-8-carboxamide] |  |  |
| 0.001 to 0.2 µM | 0.001 to 0.2 µM | Cc1ccc(Nc2ncc3c(n2)N(C)C(=O)N(c2cc(NC(=O)c4ccc5c(c4)NC(=O)[C@H](Cc4cccc(F)c4)N=C5c4ccccc4)ccc2C)C3)cn1 [Example 27, (S)-3-(3-fluorobenzyl)-N-(4-methyl-3-(1-methyl-7-((6-methylpyridin-3-yl)amino)-2-oxo-1,4-dihydropyrimido[4,5-d]pyrimidin-3(2H)-yl)phenyl)-2-oxo-5-phenyl-2,3-dihydro-1H-benzo[e][1,4]diazepine-8-carboxamide] |  |  |

The next lines start with the compound.

| Structure (SMILES) | IC50 (LCK; read-out: LCK IC50) | IC50 (c-Src; read-out: c-Src IC50) | IC50 (LCK) | IC50 (c-Src) |
| --- | --- | --- | --- | --- |
| Cc1ccc(Nc2ncc3c(n2)N(C)C(=O)N(c2cc(C(=O)N[C@H](C(=O)N4CCC[C@@H]4C(=O)NC(C)(C)C(=O)N[C@H](C(=O)N(C)C)C(C)C)C(C)C)ccc2C)C3)cn1 [Example 23, (R)—N-(1-(((S)-1-(dimethylamino)-3-methyl-1-oxobutan-2-yl)amino)-2-methyl-1-oxopropan-2-yl)-1-((4-methyl-3-(1-methyl-7-((6-methylpyridin-3-yl)amino)-2-oxo-1,4-dihydropyrimido[4,5-d]pyrimidin-3(2H)-yl)benzoyl)-L-valyl)pyrrolidine-2-carboxamide] (X1-V[dP][Aib]V-NMe2) | > 0.6 µM | > 0.6 µM |  |  |
| Cc1ccc(Nc2ncc3c(n2)N(C)C(=O)N(c2cc(NC(=O)c4ccc5c(c4)N(CC(C)C)C(=O)[C@H](CC(C)C)N=C5c4ccccc4)ccc2C)C3)cn1 [Example 39, (S)-1,3-diisobutyl-N-(4-methyl-3-(1-methyl-7-((6-methylpyridin-3-yl)amino)-2-oxo-1,4-dihydropyrimido[4,5-d]pyrimidin-3(2H)-yl)phenyl)-2-oxo-5-phenyl-2,3-dihydro-1H-benzo[e][1,4]diazepine-8-carboxamide] | 0.001 to 0.2 µM | 0.4 to 0.6 µM |  |  |
| Cc1ccc(Nc2ncc3c(n2)N(C)C(=O)N(c2cc(C(=O)N[C@H](C(=O)N4CCC[C@H]4C(=O)NC4(C(=O)N[C@@H](CC(C)C)C(=O)N(C)C)CCC4)C(C)C)ccc2C)C3)cn1 [Example 12, (S)—N-(1-(((S)-1-(dimethylamino)-4-methyl-1-oxopentan-2-yl)carbamoyl)cyclobutyl)-1-((4-methyl-3-(1-methyl-7-((6-methylpyridin-3-yl)amino)-2-oxo-1,4-dihydropyrimido[4,5-d]pyrimidin-3(2H)-yl)benzoyl)-L-valyl)pyrrolidine-2-carboxamide] (X1-VP[Ac4c]L-NMe2) |  |  | 0.001 to 0.2 µM | > 0.6 µM |
| Cc1ccc(Nc2ncc3c(n2)N(C)C(=O)N(c2cc(C(=O)N[C@H](C(=O)N4CCC[C@@H]4C(=O)N[C@H](C(=O)N[C@H](C)c4ccccc4)C(C)C)C(C)C)ccc2C)C3)cn1 [Example 8, (R)—N—((S)-3-methyl-1-oxo-1-(((R)-1-phenylethyl)amino)butan-2-yl)-1-((4-methyl-3-(1-methyl-7-((6-methylpyridin-3-yl)amino)-2-oxo-1,4-dihydropyrimido[4,5-d]pyrimidin-3(2H)-yl)benzoyl)-L-valyl)pyrrolidine-2-carboxamide] | 0.4 to 0.6 µM | > 0.6 µM |  |  |
